The results in this text go back to article PMC11365428 (The Journal of Biological Chemistry, 2024).

The EC50 is the midpoint of the concentration-response curve. High values mean weaker potency, low ones greater potency.

Non-standard residues stand in square brackets, D forms with d. Residues, ends and D or L forms follow the SMILES beside them. pGlu = O=C1CC[C@@H](C(=O)O)N1

Common to all, as to assay type: cell-based
In assay [1] the target is apTKRPR-A 5A (Aplysia californica, UniProt A0AAU7SSZ1, S377A/S394A/T379A/T387A/T393A). Briefly: IP1 accumulation assay, Ser/Thr-to-Ala mutant apTKRPR-A 5A. As for the experimental part: To express putative Aplysia receptors transiently in CHO-K1 cells, the cDNAs were subcloned into the pcDNA3.1(+) or pcDNA3.1(+)-FLAG (for ELISA experiments only, see “Cell surface expression analysis by ELISA” section) expression vector. On the day before transfection, the CHO-K1 cells were passaged into 60 mm diameter tissue culture–treated dishes, and the transfection experiments were performed when the cells were grown to 70 to 90% confluence. CHO-K1 cells were transfected with the cDNA plasmid constructs using Turbofect Transfection reagent (Thermo Fisher Scientific, R0531), following the manufacturer’s instructions. In brief, 4 μg of the putative receptor plasmids [in pcDNA3.1(+) or pcDNA3.1(+)-FLAG] were mixed with 400 μl of Opti-MEM (Gibco, 11058021), followed by the addition of 15 μl of TurboFect Transfection reagent and incubated at room temperature for 15 min. […]
The next day, transfected cells were trypsinized and reseeded in an opaque white 96-well half-area (Corning, 3688) or 384-well tissue culture–treated plates (Corning, 3570) at a density of 20,000 cells/well in F-12K and 10% FBS and incubated at 37 °C in a humidified incubator containing 5% CO2 overnight. On the third day, the activation of the putative receptors was detected by monitoring intracellular IP1 concentration using an IP-One Gq kit (Cisbio, 62IPAPEB) in Tecan Spark. […]

Assay [2] addresses T1, apTKRPR-B (Aplysia californica, UniProt A0AAU7STS1).
T1 sequence (A0AAU7STS1 1-447): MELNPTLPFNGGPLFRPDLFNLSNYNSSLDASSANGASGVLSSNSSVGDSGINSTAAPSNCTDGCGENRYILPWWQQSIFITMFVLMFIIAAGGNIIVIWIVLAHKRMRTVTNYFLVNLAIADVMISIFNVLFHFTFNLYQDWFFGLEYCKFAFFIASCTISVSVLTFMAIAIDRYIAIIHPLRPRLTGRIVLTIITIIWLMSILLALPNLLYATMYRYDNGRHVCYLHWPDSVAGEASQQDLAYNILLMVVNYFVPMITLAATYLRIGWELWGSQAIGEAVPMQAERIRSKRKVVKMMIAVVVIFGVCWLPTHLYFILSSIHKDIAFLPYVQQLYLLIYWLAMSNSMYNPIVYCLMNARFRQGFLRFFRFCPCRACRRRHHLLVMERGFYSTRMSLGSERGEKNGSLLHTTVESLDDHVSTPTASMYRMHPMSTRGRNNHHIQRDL
Briefly: Receptor desensitization assay, protocol 2 (repeated agonist exposure), apTKRPR-B. The settings on record: 10 μM pretreatment 2-60 min without LiCl, wash, second 10 μM application for 15 min with LiCl; % of control; n = 5. The method, then: (§1) Therefore, we adopted two protocols to study the desensitization of apTKRPRs. The protocols were performed using a procedure modified from previous work ([87], [88], [89]).
Protocol 2 ([89]): To simulate repeated stimulation with an agonist, we examined agonist-induced desensitization by quantifying the accumulation level of IP1 after two applications of the agonist/ligand. Because the IP1 accumulation assay involves using LiCl to stop the degradation of IP1, in this protocol, LiCl was applied only during the second application of the agonist. Specifically, to elicit desensitization, cells were first exposed to 10 μM apTKRP-2b in the absence of LiCl for various pretreatment durations (pretreatment stage/phase Ⅰ). After this agonist exposure, cells were washed (three times) rapidly with PBS (phase Ⅱ), and the wash was consistently performed in each experiment. Responsiveness of the receptor was then assessed by measuring intracellular concentrations of IP1 accumulation in response to a second application of 10 μM apTKRP-2b for 15 min in the presence of LiCl (phase Ⅲ) (Fig. S11).

The target in assay [3] is T2, apTKRPR-A (Aplysia californica, UniProt A0AAU7SSZ1).
T2 sequence (A0AAU7SSZ1 1-398): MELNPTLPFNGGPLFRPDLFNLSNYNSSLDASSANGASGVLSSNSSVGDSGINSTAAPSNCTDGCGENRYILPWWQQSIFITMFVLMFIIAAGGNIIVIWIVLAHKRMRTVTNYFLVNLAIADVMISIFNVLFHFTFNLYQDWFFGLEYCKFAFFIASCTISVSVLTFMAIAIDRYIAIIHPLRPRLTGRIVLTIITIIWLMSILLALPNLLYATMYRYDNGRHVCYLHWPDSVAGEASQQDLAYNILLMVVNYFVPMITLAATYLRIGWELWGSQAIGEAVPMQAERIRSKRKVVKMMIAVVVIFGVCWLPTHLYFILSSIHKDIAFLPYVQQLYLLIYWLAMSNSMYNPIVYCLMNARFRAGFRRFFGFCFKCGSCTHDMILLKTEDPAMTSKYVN
Put plainly: Receptor desensitization assay, protocol 1 (prolonged agonist exposure), apTKRPR-A. The settings on record: 10 μM, 2, 5, 10, 15, 30 and 60 min at 37 °C; fold increase over basal; n = 3. As for the experimental part: as §1
Protocol 1 ([87], [88]): Under continuous (prolonged) stimulation with an agonist, we examined agonist-induced desensitization by quantifying the rate of IP1 accumulation. Specifically, CHO-K1 cells transiently expressing pcDNA3.1-apTKRPRs were incubated in the absence or presence of 10 μM (saturating concentration) apTKRP-2b for the different duration (2, 5, 10, 15, 30, and 60 min) at 37 °C, and intracellular concentrations of IP1 accumulation were measured. Data are presented as fold increase over basal IP1 concentration (Fig. S10).

apTKRPR-A 5A, sequence (A0AAU7SSZ1 entry or part of it S377A/T379A/T387A/T393A/S394A): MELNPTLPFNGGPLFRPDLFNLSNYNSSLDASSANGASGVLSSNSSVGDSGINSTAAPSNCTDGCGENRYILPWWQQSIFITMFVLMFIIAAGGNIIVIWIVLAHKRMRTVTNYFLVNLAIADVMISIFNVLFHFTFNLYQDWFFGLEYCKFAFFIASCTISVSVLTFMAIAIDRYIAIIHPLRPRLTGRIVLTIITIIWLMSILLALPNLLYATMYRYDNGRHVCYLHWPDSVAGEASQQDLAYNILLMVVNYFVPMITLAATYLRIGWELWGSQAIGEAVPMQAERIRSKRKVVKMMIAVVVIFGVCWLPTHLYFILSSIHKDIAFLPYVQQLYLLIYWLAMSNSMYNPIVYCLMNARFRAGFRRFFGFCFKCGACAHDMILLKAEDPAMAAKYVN

In the case of `CC(C)C[C@H](NC(=O)[C@H](Cc1c[nH]cn1)NC(=O)[C@@H]1CCCN1C(=O)[C@@H]1CCC(=O)N1)C(=O)NCC(=O)N[C@@H](Cc1ccccc1)C(=O)N[C@@H](Cc1c[nH]cn1)C(=O)NCC(=O)N[C@@H](CO)C(=O)N[C@@H](CCCNC(=N)N)C(N)=O` [apTKRP-2b] ([pGlu]PHLGFHGSR-NH2), the midpoint of the response in assay [1], the EC50, lay at 58.9 nM. In assay [2], the “IP1 accumulation after pretreatment, apTKRPR-B (protocol 2)” value is “IP1 accumulation was less after the second exposure”. In addition, the “time course of IP1 accumulation, apTKRPR-A (protocol 1)” value in assay [3] was “initially increased and then reached a plateau”.
